Patent US20230371512A1, “FUNGICIDAL COMPOSITIONS” (SYNGENTA CROP PROTECTION AG, priority 2020, published 2023)

Key:
[1] = tested on: Mycosphaerella arachidis Syn. Cercospora arachidicola; experiment: Mycosphaerella arachidis liquid culture growth inhibition (microtiter plate, PDB, photometric); type: cell-based; conditions: read-out: Observed Activity (%); for inhibition at 10 ppm: single compound 10 ppm; for inhibition at 20 ppm: single compound 20 ppm; for inhibition at 0.625 ppm: single compound 0.625 ppm; for inhibition at 1.25 ppm: single compound 1.25 ppm; for inhibition at 2.5 ppm: single compound 2.5 ppm; for inhibition at 5 ppm: single compound 5 ppm
Description: Mycosphaerella arachidis Syn. Cercospora arachidicola (Brown Leaf Spot of Peanut): Conidia of the fungus from cryogenic storage were directly mixed into nutrient broth (PDB potato dextrose broth). A DMSO solution of the test compounds was placed into a microtiter plate (96-well format) and the nutrient broth containing the fungal spores was added to it. The test plates were incubated at 24° C. and the inhibition of growth was determined photometrically after 5-6 days at 620 nm.

Septoria Glycines = experiment: Septoria glycines liquid culture growth inhibition (microtiter plate, PDB, visual); type: cell-based; conditions: read-out: Observed Activity (%)
Description: (§1) Septoria Glycines (Brown Spot): Conidia of the fungus from cryogenic storage were directly mixed into nutrient broth (PDB potato dextrose broth). A DMSO solution of the test compounds was placed into a microtiter plate (96-well format) and the nutrient broth containing the fungal spores was added to it.

Phakopsora pachyrhizi = Phakopsora pachyrhizi soybean rust, treated plants / leaf disk test; type: in vivo; conditions: foliar, read-out: Observed Activity (%); for inhibition at 15 g/ha: single compound 15 g/ha
Description: Phakopsora pachyrhizi (Soybean Rust):
Whole soybean plants are treated with the recited active ingredients 4 weeks after planting. 1 day after spraying leaf disks are cut from the first trifoliate leaf. Five repetitions at each rate are conducted. The leaf disks are inoculated with Phakopsora pachyrhizi (Asian soybean rust) one day after treatment. Evaluation of the leaf disks is conducted 11 to 14 days after inoculation and the activity is derived from the relation of the treated vs untreated, infested check. The rates of the active ingredients used are given in Table as g active ingredient (a.i.)/ha.

Septoria tritici = Septoria tritici liquid culture growth inhibition (microtiter plate, PDB, photometric); type: cell-based; conditions: Zymoseptoria tritici, read-out: Observed Activity (%)
Description: as §1, with “tritici (Leaf Blotch):” for “Glycines (Brown Spot):”

CNC(=O)C(F)(F)c1ccc(-c2noc(C(F)(F)F)n2)cc1 [2,2-difluoro-N-methyl-2-[4-[5-(trifluoromethyl)-1,2,4-oxadiazol-3-yl]phenyl]acetamide]
inhibition at 10 ppm [1]: 20% | inhibition at 20 ppm [1]: 50%

N#Cc1ccc(Oc2ccc(C(F)(F)C(O)(Cn3nc[nH]c3=S)c3ccc(F)cc3F)nc2)cc1 (stereo not drawn) [4-[[6-[2-(2,4-Difluorophenyl)-1,1-difluoro-2-hydroxy-3-(5-thioxo-4H-1,2,4-triazol-1-yl)propyl]-3-pyridyl]oxy]benzonitrile]
inhibition at 0.25 ppm (Septoria Glycines; single compound 0.25 ppm): 20% | inhibition at 0.5 ppm (Septoria Glycines; single compound 0.5 ppm): 20%

Cc1cc(C2=NC(C)(C)C(F)(F)c3ccccc32)cnc1C [Compound A-1.1, 1-(5,6-dimethyl-3-pyridyl)-4,4-difluoro-3,3-dimethyl-isoquinoline]
inhibition at 0.625 ppm [1]: 0% | inhibition at 1.25 ppm [1]: 0% | inhibition at 2.5 ppm [1]: 0% | inhibition at 5 ppm [1]: 0% | inhibition at 10 ppm [1]: 0% | inhibition at 20 ppm [1]: 20% | inhibition at 15 g/ha (Phakopsora pachyrhizi): 2% | inhibition at 30 g/ha (Phakopsora pachyrhizi; single compound 30 g/ha): 4% | inhibition at 5 ppm (Septoria Glycines; single compound 5 ppm): 0% | inhibition at 10 ppm (Septoria Glycines; single compound 10 ppm): 20% | inhibition at 20 ppm (Septoria Glycines; single compound 20 ppm): 50% | inhibition at 1.25 ppm (Septoria tritici; single compound 1.25 ppm): 0% | inhibition at 2.5 ppm (Septoria tritici; single compound 2.5 ppm): 0% | inhibition at 5 ppm (Septoria tritici; single compound 5 ppm): 20% | inhibition at 10 ppm (Septoria tritici; single compound 10 ppm): 50% | inhibition at 20 ppm (Septoria tritici; single compound 20 ppm): 70%

Cc1cc(C2=NC(C)(C)C(F)(F)c3ccccc32)cnc1C(F)F [Compound A-1.2, 1-[6-(difluoromethyl)-5-methyl-3-pyridyl]-4,4-difluoro-3,3-dimethyl-isoquinoline]
inhibition at 0.625 ppm [1]: 0% | inhibition at 1.25 ppm [1]: 0% | inhibition at 2.5 ppm [1]: 0% | inhibition at 5 ppm [1]: 0% | inhibition at 10 ppm [1]: 20% | inhibition at 20 ppm [1]: 50% | inhibition at 15 g/ha (Phakopsora pachyrhizi): 12%

O=C(Nc1ccccc1F)c1ccc(-c2noc(C(F)(F)F)n2)cc1 [N-(2-fluorophenyl)-4-[5-(trifluoromethyl)-1,2,4-oxadiazol-3-yl]benzamide]
inhibition at 0.75 g/ha (Phakopsora pachyrhizi; single compound 0.75 g/ha): 27% | inhibition at 1.5 g/ha (Phakopsora pachyrhizi; single compound 1.5 g/ha): 45%

CNC(=S)c1ccc(-c2noc(C(F)(F)F)n2)cc1 [N-methyl-4-[5-(trifluoromethyl)-1,2,4-oxadiazol-3-yl]benzenecarbothioamide]
inhibition at 3 ppm ([1]; single compound 3 ppm): 70% | inhibition at 6 ppm ([1]; single compound 6 ppm): 90% | inhibition at 6 ppm (Septoria tritici; single compound 6 ppm): 50%

CCN(C)C=Nc1cc(C)c(Oc2ccccc2F)cc1Cl [N′-[2-chloro-4-(2-fluorophenoxy)-5-methyl-phenyl]-N-ethyl-N-methyl-formamidine]
inhibition at 1 ppm ([1]; single compound 1 ppm): 70% | inhibition at 2 ppm ([1]; single compound 2 ppm): 90% | inhibition at 1 g/ha (Phakopsora pachyrhizi; single compound 1 g/ha): 4% | inhibition at 2 g/ha (Phakopsora pachyrhizi; single compound 2 g/ha): 13%
